# Measured values: BindingDB's records for doi:10.1016/s0167-0115(98)00049-4 (Uppsala University, 1998)
# Non-standard residues stand in square brackets, D forms with d. Residues, ends and D or L forms follow the SMILES beside them. Ahx = NCCCCCC(=O)O
# Molecular target: T1, Neuropeptide Y receptor type 2 (Cavia porcellus, UniProt Q9Z2D5)
# T1 sequence (Q9Z2D5 whole entry): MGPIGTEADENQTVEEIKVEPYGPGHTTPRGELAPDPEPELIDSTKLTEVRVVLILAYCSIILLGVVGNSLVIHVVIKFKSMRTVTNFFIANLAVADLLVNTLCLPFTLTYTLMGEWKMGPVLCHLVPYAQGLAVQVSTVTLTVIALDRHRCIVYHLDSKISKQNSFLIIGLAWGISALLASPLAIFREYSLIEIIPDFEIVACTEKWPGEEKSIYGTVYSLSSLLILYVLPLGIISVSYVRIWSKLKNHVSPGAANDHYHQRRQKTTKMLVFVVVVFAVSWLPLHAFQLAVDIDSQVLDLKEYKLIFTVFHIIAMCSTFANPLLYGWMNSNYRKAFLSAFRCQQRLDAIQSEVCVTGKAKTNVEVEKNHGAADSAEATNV
row,Compound,Ki [µM]
1,"CC[C@H](C)[C@H](NC(=O)[C@H](Cc1ccc(O)cc1)NC(=O)[C@H](Cc1cnc[nH]1)NC(=O)[C@H](CCCNC(=N)N)NC(=O)CCCCCNC(=O)[C@H](CCCCN)NC(=O)[C@H](CO)NC(=O)[C@@H]1CCCN1C(=O)[C@@H](N)Cc1ccc(O)cc1)C(=O)N[C@@H](CC(N)=O)C(=O)N[C@@H](CC(C)C)C(=O)N[C@H](C(=O)N[C@H](C(=O)N[C@@H](CCCNC(=N)N)C(=O)N[C@@H](CCC(N)=O)C(=O)N[C@@H](CCCNC(=N)N)C(=O)N[C@@H](Cc1ccc(O)cc1)C(N)=O)[C@@H](C)O)[C@@H](C)CC [NPY5-24, Ahx] (H-YPSK[Ahx]RHYINLITRQRY-NH2)",0.000181
2,H-APLEPEYPGDNATPEQMAQYAAELRRYINMLTRPRY-NH2 [CAS_59763-91-6],1
3,"CC[C@H](C)[C@H](NC(=O)[C@H](Cc1ccc(O)cc1)NC(=O)[C@H](Cc1cnc[nH]1)NC(=O)[C@H](CCCN=C(N)N)NC(=O)[C@H](CC(C)C)NC(=O)[C@H](C)NC(=O)[C@@H](N)CO)C(=O)N[C@@H](CC(N)=O)C(=O)N[C@@H](CC(C)C)C(=O)N[C@H](C(=O)N[C@H](C(=O)N[C@@H](CCCN=C(N)N)C(=O)N[C@@H](CCC(N)=O)C(=O)N[C@@H](CCCN=C(N)N)C(=O)N[C@@H](Cc1ccc(O)cc1)C(N)=O)[C@@H](C)O)[C@@H](C)CC [NPY22-36, rat, human]",0.000136
4,"CC[C@H](C)[C@H](NC(=O)[C@H](Cc1ccc(O)cc1)NC(=O)[C@H](Cc1cnc[nH]1)NC(=O)[C@H](CCCNC(=N)N)NC(=O)[C@H](CC(C)C)NC(=O)[C@H](C)NC(=O)[C@H](CO)NC(=O)[C@H](Cc1ccc(O)cc1)NC(=O)CCCCCNC(=O)[C@H](CC(N)=O)NC(=O)[C@H](CC(=O)O)NC(=O)[C@@H]1CCCN1C(=O)[C@H](CCCCN)NC(=O)[C@H](CO)NC(=O)[C@@H]1CCCN1C(=O)[C@@H](N)Cc1ccc(O)cc1)C(=O)N[C@@H](CC(N)=O)C(=O)N[C@@H](CC(C)C)C(=O)N[C@H](C(=O)N[C@H](C(=O)N[C@@H](CCCNC(=N)N)C(=O)N1CCC[C@H]1C(=O)N[C@@H](CCCNC(=N)N)C(=O)N[C@@H](Cc1ccc(O)cc1)C(N)=O)[C@@H](C)O)[C@@H](C)CC [NPY8-20, Pro34, Ahx] (H-YPSKPDN[Ahx]YSALRHYINLITRPRY-NH2)",0.0853
5,"CC[C@H](C)[C@H](NC(=O)[C@H](Cc1ccc(O)cc1)NC(=O)[C@H](Cc1c[nH]cn1)NC(=O)[C@H](CCCNC(=N)N)NC(=O)[C@H](CC(C)C)NC(=O)[C@H](C)NC(=O)[C@H](CO)NC(=O)[C@H](Cc1ccc(O)cc1)NC(=O)CCCCCNC(=O)[C@H](CC(N)=O)NC(=O)[C@H](CC(=O)O)NC(=O)[C@@H]1CCCN1C(=O)[C@H](CCCCN)NC(=O)[C@H](CO)NC(=O)[C@@H]1CCCN1C(=O)[C@@H](N)Cc1ccc(O)cc1)C(=O)N[C@@H](CC(N)=O)C(=O)N[C@@H](CC(C)C)C(=O)N[C@H](C(=O)N[C@H](C(=O)N[C@@H](CCCNC(=N)N)C(=O)N[C@@H](CCC(N)=O)C(=O)N[C@@H](CCCNC(=N)N)C(=O)N[C@@H](Cc1ccc(O)cc1)C(N)=O)[C@@H](C)O)[C@@H](C)CC [NPY8-20, Ahx] (H-YPSKPDN[Ahx]YSALRHYINLITRQRY-NH2)",0.000117
6,"H-INPIYRLRY-NH2 [NPY 28-36, [P30, Y32, L34]]",0.295
